The values that follow are results of earlier work, collected in US20100221327A1, “Nanoparticulate azelnidipine formulations” (Elan Pharma International Limited, priority 2005, published 2010).

“Also recorded” adds a separate entry of the source.

For `CC1=C(C(=O)OC(C)C)C(c2cccc([N+](=O)[O-])c2)C(C(=O)OC2CN(C(c3ccccc3)c3ccccc3)C2)=C(N)N1` (racemic) [Azelnidipine, (±)-3-(1-Diphenylmethylazetidin-3-yl)-5-isopropyl 2-amino-1,4-dihydro-6-methyl-4-(3-nitrophenyl)-3,5-pyridinedicarboxylate], the Solubility in water entry was “only slightly soluble; also recorded: practically insoluble”.
